Data from patent publication US7855292B2, “Sulfonamide compounds” (Janssen Pharmaceutica NV, priority 2004, dated 2010).

Assays:
[1] = target: T1, CCK-1 receptor (Homo sapiens, UniProt P32238); assay: CCK1 binding assay ([125I]-BH-CCK-8S displacement, CHO-K1 membranes); settings: membranes of CHO-K1 cells stably transfected with the CCK-1 receptor, 20 pM [125I]-BH-CCK-8S, 0.3 μM PD-134,308 present, 60 min at 21±3° C.; for Ki: read-out: CCK1 pKi (converted)
T1 construct: expressed in transfected cells; host or cells: CHO-K1
T1 sequence (P32238 1-428): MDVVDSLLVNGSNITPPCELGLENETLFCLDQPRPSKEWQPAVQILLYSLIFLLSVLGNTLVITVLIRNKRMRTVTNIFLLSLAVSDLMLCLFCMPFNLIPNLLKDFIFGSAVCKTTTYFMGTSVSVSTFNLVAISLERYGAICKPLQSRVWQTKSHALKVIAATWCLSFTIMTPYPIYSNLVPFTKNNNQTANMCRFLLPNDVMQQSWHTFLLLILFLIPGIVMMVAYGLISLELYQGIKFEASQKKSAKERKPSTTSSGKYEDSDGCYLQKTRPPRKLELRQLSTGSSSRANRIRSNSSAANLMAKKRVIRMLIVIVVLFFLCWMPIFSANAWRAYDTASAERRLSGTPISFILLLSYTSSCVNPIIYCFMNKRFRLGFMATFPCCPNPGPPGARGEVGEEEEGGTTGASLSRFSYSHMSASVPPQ
Outline: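 Membranes from CHO-K1 cells stably expressing CCK-1 incubated 1 h at 21±3° C with 20 pM [125I]-BH-CCK-8S in HEPES buffer pH 7.2 containing 0.3 μM PD-134,308 to block CCK-2. Bound radioactivity read by gamma counting after filtration. pKi derived via Cheng-Prusoff, with specific binding defined using 2-NAP.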

[2] = target: T2, CCK2 receptor (Homo sapiens, UniProt P32239); assay: CCK2 binding assay ([125I]-BH-CCK-8S displacement, HEKZFP membranes); settings: membranes of doxycycline-induced HEKZFP cells, 20 pM [125I]-BH-CCK-8S, 60 min at 21±3° C.; for Ki: read-out: CCK2 pKi (converted)
T2 construct: analyzed for ZFP expression as well as CCK2R induction upon addition of doxycycline to the culture medium; endogenous in cells
T2 sequence (P32239 1-447): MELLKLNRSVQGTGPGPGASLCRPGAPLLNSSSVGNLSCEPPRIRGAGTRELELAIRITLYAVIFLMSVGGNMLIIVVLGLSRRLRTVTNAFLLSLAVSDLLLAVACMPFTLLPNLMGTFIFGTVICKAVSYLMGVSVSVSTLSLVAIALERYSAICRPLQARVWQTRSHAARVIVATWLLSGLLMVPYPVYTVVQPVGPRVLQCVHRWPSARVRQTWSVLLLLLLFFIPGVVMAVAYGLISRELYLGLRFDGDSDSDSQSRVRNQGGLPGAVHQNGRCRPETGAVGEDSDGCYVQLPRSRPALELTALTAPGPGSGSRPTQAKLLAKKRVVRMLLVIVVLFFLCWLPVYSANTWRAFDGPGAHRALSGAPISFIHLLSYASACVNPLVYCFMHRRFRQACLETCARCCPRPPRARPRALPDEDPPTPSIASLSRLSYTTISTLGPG

| SMILES | Ki [1] | Ki [2] | CCK1 pKi [1] | CCK2 pKi [2] |
| --- | --- | --- | --- | --- |
| CC(CNC(=O)c1ccc(I)cc1NS(=O)(=O)c1cccc2nccnc12)c1ccc(Cl)c(Cl)c1 (racemic) [Example 61, (±)-N-[2-(3,4-Dichloro-phenyl)-propyl]-4-iodo-2-(quinoxaline-5-sulfonylamino)-benzamide] | 126 nM | 398 nM |  |  |
| CC(Cc1ccc(Cl)cc1)NC(=O)c1ccc(Br)cc1NS(=O)(=O)c1cccc2nsnc12 (racemic) [Example 53, (±)-2-(Benzo[1,2,5]thiadiazole-4-sulfonylamino)-4-bromo-N-[2-(4-chloro-phenyl)-1-methyl-ethyl]-benzamide] | 126 nM | 2510 nM |  |  |
| C[C@H](CNC(=O)c1ccc(Br)cc1NS(=O)(=O)c1c(F)cccc1F)c1ccccc1 [Example 37, (S)-4-Bromo-2-(2,6-difluoro-benzenesulfonylamino)-N-(2-phenyl-propyl)-benzamide] | 398 nM | 3980 nM |  |  |
| COC(=O)[C@H](Cc1ccc(Cl)c(Br)c1)NC(=O)c1ccc(Br)cc1NS(=O)(=O)c1cccc2nsnc12 [Example 142, (S)-2-[2-(Benzo[1,2,5]thiadiazole-4-sulfonylamino)-4-bromo-benzoylamino]-3-(3-bromo-4-chloro-phenyl)-propionic acid methyl ester] | 158 nM | 631 nM |  |  |
| COC(=O)[C@H](Cc1ccc(Cl)c(Br)c1)NC(=O)c1ccc(I)cc1NS(=O)(=O)c1cccc2nsnc12 [Example 122, (S)-2-[2-(Benzo[1,2,5]thiadiazole-4-sulfonylamino)-4-iodo-benzoylamino]-3-(3-bromo-4-chloro-phenyl)-propionic acid methyl ester] | 158 nM | 398 nM |  |  |
| CC(CNC(=O)c1ccc(I)cc1NS(=O)(=O)c1c(F)cccc1F)c1ccc(Cl)c(Cl)c1 (stereo not shown) [Example 42, N-[2-(3,4-Dichloro-phenyl)-propyl]-2-(2,6-difluoro-benzenesulfonylamino)-4-iodo-benzamide] | 31.6 nM | 3160 nM |  |  |
| C[C@H](CNC(=O)c1ccc(Br)cc1NS(=O)(=O)c1cccc2nsnc12)c1ccccc1 [Example 35, (S)-2-(Benzo[1,2,5]thiadiazole-4-sulfonylamino)-4-bromo-N-(2-phenyl-propyl)-benzamide] |  |  | 7.2 | 6.3 |
| O=C(N[C@@H](Cc1ccc(F)c(Br)c1)C(=O)O)c1ccc(I)cc1NS(=O)(=O)c1c(F)cccc1F [Example 127, (S)-3-(3-Bromo-4-fluoro-phenyl)-2-[2-(2,6-difluoro-benzenesulfonylamino)-4-iodo-benzoylamino]-propionic acid] | 200 nM | 79.4 nM |  |  |
| CC(CNC(=O)c1ccc(Br)cc1NS(=O)(=O)c1cccc2nsnc12)c1ccccc1 (stereo not shown) [Example 31, 2-(Benzo[1,2,5]thiadiazole-4-sulfonylamino)-4-bromo-N-(2-phenyl-propyl)-benzamide] |  |  | 7.1 | 6.2 |
| COC(=O)[C@H](Cc1ccc(F)c(Br)c1)NC(=O)c1ccc(Cl)cc1NS(=O)(=O)c1cccc2nccnc12 [Example 152, (S)-3-(3-Bromo-4-fluoro-phenyl)-2-[4-chloro-2-(quinoxaline-5-sulfonylamino)-benzoylamino]-propionic acid methyl ester] | 1000 nM | 158 nM |  |  |
| O=C(N[C@@H](Cc1cccc(Br)c1)C(=O)O)c1ccc(I)cc1NS(=O)(=O)c1cccc2nsnc12 [Example 4, (S)-2-[2-(Benzo[1,2,5]thiadiazole-4-sulfonylamino)-4-iodo-benzoylamino]-3-(3-bromo-phenyl)-propionic acid] | 631 nM | 5.01 nM |  |  |
| O=C(N[C@@H](Cc1ccccc1)C(=O)O)c1cc(Cl)c(Cl)cc1NS(=O)(=O)c1cccc2nccnc12 [Example 29, 2-[4,5-Dichloro-2-(quinoxaline-5-sulfonylamino)-benzoylamino]-3-phenyl-propionic acid] | 6310 nM | 79.4 nM |  |  |
| CC(Cc1ccc(Cl)cc1)NC(=O)c1ccc(Br)cc1NS(=O)(=O)c1cccc2scnc12 (stereo not shown) [Example 23, 2-(Benzothiazole-4-sulfonylamino)-4-bromo-N-[2-(4-chloro-phenyl)-1-methyl-ethyl]-benzamide] | 1000 nM | 631 nM |  |  |
| COC(=O)[C@@H](NC(=O)c1ccc(I)cc1NS(=O)(=O)c1c(F)cccc1F)[C@H](C)c1ccc(Cl)c(Cl)c1 [Example 116, (2S,3R)-3-(3,4-Dichloro-phenyl)-2-[2-(2,6-difluoro-benzenesulfonylamino)-4-iodo-benzoylamino]-butyric acid methyl ester] | 126 nM | 2000 nM |  |  |
| C[C@H](NC(=O)c1ccc(Cl)cc1NS(=O)(=O)c1cccc2nsnc12)C(O)(c1ccccc1)c1ccccc1 [Example 74, (S)-2-(Benzo[1,2,5]thiadiazole-4-sulfonylamino)-4-chloro-N-(2-hydroxy-1-methyl-2,2-diphenyl-ethyl)-benzamide] | 316 nM | 7940 nM |  |  |

The remaining lines, values ahead:

| Ki [1] | Ki [2] | CCK1 pKi [1] | CCK2 pKi [2] | SMILES |
| --- | --- | --- | --- | --- |
|  |  | 6.6 | 8.2 | O=C(N[C@@H](Cc1ccc(F)c(Br)c1)C(=O)O)c1ccc(Br)cc1NS(=O)(=O)c1cccc2nsnc12 [Example 162, (S)-2-[2-(Benzo[1,2,5]thiadiazole-4-sulfonylamino)-4-bromo-benzoylamino]-3-(3-bromo-4-fluoro-phenyl)-propionic acid] |
| 3160 nM | 39.8 nM |  |  | O=C(N[C@@H](Cc1ccc(F)cc1)C(=O)O)c1ccc(Cl)cc1NS(=O)(=O)c1cccc2nsnc12 [Example 76, (S)-2-[2-(Benzo[1,2,5]thiadiazole-4-sulfonylamino)-4-chloro-benzoylamino]-3-(4-fluoro-phenyl)-propionic acid] |
| 158 nM | 200 nM |  |  | COC(=O)[C@H](Cc1ccc(F)c(Br)c1)NC(=O)c1ccc(Br)cc1NS(=O)(=O)c1cccc2nsnc12 [Example 143, (S)-2-[2-(Benzo[1,2,5]thiadiazole-4-sulfonylamino)-4-bromo-benzoylamino]-3-(3-bromo-4-fluoro-phenyl)-propionic acid methyl ester] |
| 1580 nM | 251 nM |  |  | O=C(N[C@@H](Cc1ccc(Cl)cc1)C(=O)O)c1cc(Cl)ccc1NS(=O)(=O)c1cccc2nsnc12 [Example 83, (S)-2-[2-(Benzo[1,2,5]thiadiazole-4-sulfonylamino)-5-chloro-benzoylamino]-3-(4-chloro-phenyl)-propionic acid] |
| 200 nM | 251 nM |  |  | O=C(NC(C(=O)O)C(O)c1ccc(Cl)c(Cl)c1)c1ccc(Cl)cc1NS(=O)(=O)c1cccc2nsnc12 (mixture of isomers) [Example 19, 2-[2-(Benzo[1,2,5]thiadiazole-4-sulfonylamino)-4-chloro-benzoylamino]-3-(3,4-dichloro-phenyl)-3-hydroxy-propionic acid] |
| 158 nM | 39.8 nM |  |  | O=C(N[C@@H](Cc1ccc(Cl)c(Br)c1)C(=O)O)c1cc(Cl)c(Cl)cc1NS(=O)(=O)c1cccc2nsnc12 [Example 147, (S)-2-[2-(Benzo[1,2,5]thiadiazole-4-sulfonylamino)-4,5-dichloro-benzoylamino]-3-(3-bromo-4-chloro-phenyl)-propionic acid] |
| 398 nM | 316 nM |  |  | O=C(N[C@@H](Cc1ccc(Cl)c(Cl)c1)C(=O)NCc1ccc(F)cc1)c1ccc(Cl)cc1NS(=O)(=O)c1cccc2nsnc12 [Example 130, (S)-2-(Benzo[1,2,5]thiadiazole-4-sulfonylamino)-4-chloro-N-[2-(3,4-dichloro-phenyl)-(4-fluoro-benzylcarbamoyl)-ethyl]-benzamide] |
|  |  | 6.3 | 6.8 | C[C@H](c1ccc(Cl)c(Cl)c1)[C@H](NC(=O)c1ccc(Cl)cc1NS(=O)(=O)c1cccc2nsnc12)C(=O)O [Example 56, (2S,3R)-2-[2-(Benzo[1,2,5]thiadiazole-4-sulfonylamino)-4-chloro-benzoylamino]-3-(3,4-dichloro-phenyl)-butyric acid] |
